Assay results: publication PMC12114297 (Molecules, 2025)

Assays:
[1] = tested on: Staphylococcus aureus ATCC 25923; assay: Agar well diffusion, S. aureus; assay type: cell-based; conditions: for Antibacterial activity in words: agar well diffusion, particularly S. aureus; for zone of inhibition at 1000 µg/mL: Staphylococcus aureus, ATCC25923, 60 µL of 1 mg/mL per well, ZOI including the well (6 mm), ± SD, n = 3, ciprofloxacin disk 5 μg, read-out: Staphylococcus aureus ATCC 25923 ZOI
Description: (§1) The antimicrobial potential of the synthesized coumarin–triazole–isatin hybrids was evaluated by the agar well diffusion method. The activity was tested against a variety of Gram-positive bacteria (Staphylococcus aureus ATCC 25923 and ATCC 902710, Staphylococcus epidermidis ATCC 12228, Streptococcus pyogenes ATCC 19615, Enterococcus faecalis ATCC 51299), Gram-negative bacteria (Escherichia coli ATCC 25922, Haemophilus influenzae ATCC 49766, Pseudomonas aeruginosa ATCC 27853, Salmonella typhi ATCC 14028, Neisseria meningitidis ATCC 13090, Neisseria gonorrhoeae ATCC 43069), and fungi (Candida albicans ATCC 60193 and ATCC 90028, Candida orientalis ATCC 6258). All microbial strains were obtained from Microbiologics (St.Cloud, MN, USA).
(§2) The test compounds were dissolved in DMSO to obtain stock solutions (1 mg/mL). Each compound (60 µL) was transferred into wells (6 mm in diameter) that were previously perforated into agar plates inoculated with microbial suspensions standardized to 0.5 McFarland for bacteria and 2 McFarland for Candida spp. DMSO was used as a negative control, while commercial antibiotic disks of novobiocin (5 μg), ampicillin (10 μg), and ciprofloxacin (5 μg) served as positive controls. Antimicrobial activity was assessed by measuring the diameter of zones of inhibition (ZOIs) in millimeters. All tests were conducted in triplicate.

[2] = biological target: T1, AChE from Electrophorus electricus (eeAChE) (Electrophorus electricus, UniProt O42275); assay: biochemical; conditions: for inhibition at 20 µM: read-out: AChE % of Inhibition (Conc. 20 μM)
T1 construct: purchased Sigma-Aldrich (St. Louis, MO, USA)
T1 sequence (O42275 24-633): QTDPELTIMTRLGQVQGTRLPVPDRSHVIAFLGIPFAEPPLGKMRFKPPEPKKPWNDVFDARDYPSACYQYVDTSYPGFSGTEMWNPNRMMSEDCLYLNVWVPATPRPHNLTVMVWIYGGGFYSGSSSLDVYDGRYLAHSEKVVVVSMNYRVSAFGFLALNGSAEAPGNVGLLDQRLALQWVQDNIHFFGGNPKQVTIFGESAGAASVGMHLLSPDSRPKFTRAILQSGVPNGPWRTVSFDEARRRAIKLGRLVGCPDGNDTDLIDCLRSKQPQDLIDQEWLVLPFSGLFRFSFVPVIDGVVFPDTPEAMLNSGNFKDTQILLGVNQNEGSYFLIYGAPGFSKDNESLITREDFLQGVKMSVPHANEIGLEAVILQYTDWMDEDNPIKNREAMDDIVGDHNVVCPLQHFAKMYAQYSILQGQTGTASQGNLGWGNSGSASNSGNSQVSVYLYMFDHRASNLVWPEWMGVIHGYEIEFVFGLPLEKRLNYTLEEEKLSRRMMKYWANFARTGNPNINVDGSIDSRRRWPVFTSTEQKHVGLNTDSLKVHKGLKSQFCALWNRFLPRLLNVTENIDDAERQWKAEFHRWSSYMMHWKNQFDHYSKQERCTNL

[3] = biological target: T2, BChE from equine serum (eqBuChE) (Equus caballus, UniProt P81908); assay: biochemical; conditions: for IC50 / inhibition at 20 µM / BChE % of Inhibition (Conc. 20 μM): average ± standard error (n = 3); for inhibition at 20 µM: read-out: BChE % of Inhibition (Conc. 20 μM), 20 μM
T2 construct: BChE from equine serum (BChE, EC 3.1.1.8); purchased Sigma-Aldrich (St. Louis, MO, USA); host or cells: equine serum
T2 sequence (P81908 whole entry): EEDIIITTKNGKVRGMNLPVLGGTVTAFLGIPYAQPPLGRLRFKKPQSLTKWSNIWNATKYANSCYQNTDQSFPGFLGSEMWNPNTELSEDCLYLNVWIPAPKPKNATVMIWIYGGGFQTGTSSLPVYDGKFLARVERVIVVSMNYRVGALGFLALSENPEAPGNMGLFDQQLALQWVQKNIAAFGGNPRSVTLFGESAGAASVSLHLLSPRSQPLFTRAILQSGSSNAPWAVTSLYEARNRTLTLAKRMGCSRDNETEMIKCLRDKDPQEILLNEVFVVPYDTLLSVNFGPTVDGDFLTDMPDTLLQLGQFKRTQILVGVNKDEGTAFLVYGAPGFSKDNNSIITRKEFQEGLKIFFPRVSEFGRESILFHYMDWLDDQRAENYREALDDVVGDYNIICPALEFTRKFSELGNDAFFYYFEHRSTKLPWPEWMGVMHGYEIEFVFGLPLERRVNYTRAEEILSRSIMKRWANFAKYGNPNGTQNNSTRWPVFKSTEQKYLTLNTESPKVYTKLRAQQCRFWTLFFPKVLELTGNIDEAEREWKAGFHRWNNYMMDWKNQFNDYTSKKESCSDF
Description: The in vitro cholinesterase inhibitory activity of the synthesized hybrid molecules was evaluated using a modified Ellman’s assay, optimized for 96-well microplate application. AChE from Electrophorus electricus (AChE, EC 3.1.1.7), BChE from equine serum (BChE, EC 3.1.1.8), acetylthiocholine iodide (ATCh), butyrylthiocholine iodide (BTCh), and 5,5′-dithiobis(2-nitrobenzoic acid) were purchased from Sigma-Aldrich (St. Louis, MO, USA) and used without further purification.
Test compounds were initially dissolved in dimethylsulphoxide (DMSO) to yield 1 mM stock solutions and subsequently diluted with 0.1 M phosphate buffer (pH 8.0) to prepare working solutions.
For the assay, 20 µL of compound solution was added to 140 µL of 0.1 M phosphate buffer (pH 8.0) in each well, followed by 20 µL of enzyme solution (AChE or BuChE, 100 U/L). After incubation at room temperature for 10 min, the reaction was initiated by adding 10 µL of DTNB (0.01 M) and 10 µL of substrate (ATCh or BTCh, 0.015 M). […] The percentage inhibition of enzyme activity was calculated using the following equation:(1) % Inhibition=Absorbance of control−Apsorbance of sample/Absorbance of control×100 where the absorbance of the control represents the maximum enzyme activity (without inhibition), and the absorbance of the sample corresponds to the enzyme activity in the presence of the tested compound. Appropriate blanks were included to account for background absorbance and to correct for any intrinsic color of the tested compounds.
All experiments were performed in triplicate.

[4] = tested on: Staphylococcus epidermidis ATCC 12228; assay: Agar well diffusion, S. epidermidis; assay type: cell-based; conditions: ATCC12228, read-out: Staphylococcus epidermidis ATCC 12228 ZOI, 60 µL of 1 mg/mL per well, ZOI including the well (6 mm), ± SD, n = 3, ciprofloxacin disk 5 μg
Description: as §1, §2

SMILES | Antibacterial activity in words [1] | inhibition at 20 µM [2] | IC50 [3] | inhibition at 20 µM [3] | zone of inhibition at 1000 µg/mL [4] | BChE % of Inhibition (Conc. 20 μM) [3] | IC50 ([2]; average ± standard error (n = 3)) | Selectivity BChE/AChE ([3]; ratio of AChE and BChE IC50) | zone of inhibition at 1000 µg/mL [1]
O=C1C(=O)N(Cc2cn(CCOc3cc(=O)oc4ccccc34)nn2)c2ccccc21 [Compound 6a1, 1-((1-(2-((2-oxo-2H-chromen-4-yl)oxy)ethyl)-1H-1,2,3-triazol-4-yl)methyl)indoline-2,3-dione] | failed to exhibit significant activity | 29.3 ± 2.14% | 6.08 ± 1.19 µM | 72.8 ± 2.17% | 6.08 ± 1.19 mm | – | – | – | –
O=C1C(=O)N(Cc2cn(CCOc3cc(=O)oc4ccccc34)nn2)c2ccc(F)cc21 [Compound 6a2, 5-fluoro-1-((1-(2-((2-oxo-2H-chromen-4-yl)oxy)ethyl)-1H-1,2,3-triazol-4-yl)methyl)indoline-2,3-dione] | failed to exhibit significant activity | 11.8 ± 1.18% | 9.16 ± 1.69 µM | 66.2 ± 5.18% | 9.16 ± 1.69 mm | – | – | – | –
O=C1C(=O)N(Cc2cn(CCOc3cc(=O)oc4ccccc34)nn2)c2ccc(Cl)cc21 [Compound 6a3, 5-chloro-1-((1-(2-((2-oxo-2H-chromen-4-yl)oxy)ethyl)-1H-1,2,3-triazol-4-yl)methyl)indoline-2,3-dione] | – | 5.57 ± 1.19% | 10.6 ± 1.13 µM | 62.6 ± 6.19% | 10.6 ± 1.13 mm | – | – | – | –
O=C1C(=O)N(Cc2cn(CCOc3cc(=O)oc4ccccc34)nn2)c2ccc(I)cc21 [Compound 6a5, 5-iodo-1-((1-(2-((2-oxo-2H-chromen-4-yl)oxy)ethyl)-1H-1,2,3-triazol-4-yl)methyl)indoline-2,3-dione] | largely inactive | 3.17 ± 0.26% | – | 40.9 ± 6.26% | – | – | – | – | –
O=C1C(=O)N(Cc2cn(CCOc3cc(=O)oc4ccccc34)nn2)c2ccc([N+](=O)[O-])cc21 [Compound 6a6, 5-nitro-1-((1-(2-((2-oxo-2H-chromen-4-yl)oxy)ethyl)-1H-1,2,3-triazol-4-yl)methyl)indoline-2,3-dione] | largely inactive | 3.11 ± 0.44% | – | < 6% | – | 4.89 ± 0.74% | – | – | –
Cc1ccc2c(c1)C(=O)C(=O)N2Cc1cn(CCOc2cc(=O)oc3ccccc23)nn1 [Compound 6a7, 5-methyl-1-((1-(2-((2-oxo-2H-chromen-4-yl)oxy)ethyl)-1H-1,2,3-triazol-4-yl)methyl)indoline-2,3-dione] | largely inactive | 22.8 ± 3.66% | – | – | – | 2.91 ± 0.15% | – | – | –
O=C1C(=O)N(Cc2cn(CCCOc3cc(=O)oc4ccccc34)nn2)c2ccccc21 [Compound 6b1, 1-((1-(3-((2-oxo-2H-chromen-4-yl)oxy)propyl)-1H-1,2,3-triazol-4-yl)methyl)indoline-2,3-dione] | – | 69.2 ± 4.27% | 8.52 ± 1.28 µM | 69.2 ± 5.27% | 8.52 ± 1.28 mm | – | 18.2 ± 1.19 µM | 2.13 | –
O=C1C(=O)N(Cc2cn(CCCOc3cc(=O)oc4ccccc34)nn2)c2ccc(F)cc21 [Compound 6b2, 5-fluoro-1-((1-(3-((2-oxo-2H-chromen-4-yl)oxy)propyl)-1H-1,2,3-triazol-4-yl)methyl)indoline-2,3-dione] | only modest antibacterial effect | 44.3 ± 5.69% | 5.9 ± 1.09 µM | 75.5 ± 5.69% | 5.9 ± 1.09 mm | – | – | – | 9.33 ± 4.04 mm
O=C1C(=O)N(Cc2cn(CCCOc3cc(=O)oc4ccccc34)nn2)c2ccc(Cl)cc21 [Compound 6b3, 5-chloro-1-((1-(3-((2-oxo-2H-chromen-4-yl)oxy)propyl)-1H-1,2,3-triazol-4-yl)methyl)indoline-2,3-dione] | only modest antibacterial effect | 31.5 ± 3.24% | 11.3 ± 1.16 µM | 61.6 ± 7.24% | 11.2 ± 1.16 mm | – | – | – | 10.3 ± 1.15 mm
O=C1C(=O)N(Cc2cn(CCCOc3cc(=O)oc4ccccc34)nn2)c2ccc(I)cc21 [Compound 6b5, 5-iodo-1-((1-(3-((2-oxo-2H-chromen-4-yl)oxy)propyl)-1H-1,2,3-triazol-4-yl)methyl)indoline-2,3-dione] | largely inactive | 27.6 ± 1.49% | 14.8 ± 1.44 µM | 61.6 ± 7.49% | 14.8 ± 1.44 mm | – | – | – | –
O=C1C(=O)N(Cc2cn(CCCOc3cc(=O)oc4ccccc34)nn2)c2ccc([N+](=O)[O-])cc21 [Compound 6b6, 5-nitro-1-((1-(3-((2-oxo-2H-chromen-4-yl)oxy)propyl)-1H-1,2,3-triazol-4-yl)methyl)indoline-2,3-dione] | largely inactive | 17.9 ± 1.91% | – | < 6% | – | 5.89 ± 1.91% | – | – | –
Cc1ccc2c(c1)C(=O)C(=O)N2Cc1cn(CCCOc2cc(=O)oc3ccccc23)nn1 [Compound 6b7, 5-methyl-1-((1-(3-((2-oxo-2H-chromen-4-yl)oxy)propyl)-1H-1,2,3-triazol-4-yl)methyl)indoline-2,3-dione] | largely inactive | 24.4 ± 1.27% | – | – | – | 4.88 ± 0.27% | – | – | –
O=C1C(=O)N(Cc2cn(CCCCOc3cc(=O)oc4ccccc34)nn2)c2ccc(Cl)cc21 [Compound 6c3, 5-chloro-1-((1-(4-((2-oxo-2H-chromen-4-yl)oxy)butyl)-1H-1,2,3-triazol-4-yl)methyl)indoline-2,3-dione] | only weak antibacterial activity | 44.2 ± 3.14% | – | 5.19 ± 1.14% | – | – | – | – | 10.7 ± 3.06 mm
O=C1C(=O)N(Cc2cn(CCCCOc3cc(=O)oc4ccccc34)nn2)c2ccc(Br)cc21 [Compound 6c4, 5-bromo-1-((1-(4-((2-oxo-2H-chromen-4-yl)oxy)butyl)-1H-1,2,3-triazol-4-yl)methyl)indoline-2,3-dione] | only weak antibacterial activity | 9.84 ± 1.19% | – | 27.1 ± 2.19% | – | – | – | – | 12 to 20 mm
O=C1C(=O)N(Cc2cn(CCCCOc3cc(=O)oc4ccccc34)nn2)c2ccc(I)cc21 [Compound 6c5, 5-iodo-1-((1-(4-((2-oxo-2H-chromen-4-yl)oxy)butyl)-1H-1,2,3-triazol-4-yl)methyl)indoline-2,3-dione] | largely inactive | 11.2 ± 1.64% | – | 22.9 ± 1.64% | – | – | – | – | –
O=C1C(=O)N(Cc2cn(CCCCOc3cc(=O)oc4ccccc34)nn2)c2ccc([N+](=O)[O-])cc21 [Compound 6c6, 5-nitro-1-((1-(4-((2-oxo-2H-chromen-4-yl)oxy)butyl)-1H-1,2,3-triazol-4-yl)methyl)indoline-2,3-dione] | largely inactive | 19 ± 1.96% | – | < 6% | – | 4.15 ± 0.54% | – | – | –
Cc1ccc2c(c1)C(=O)C(=O)N2Cc1cn(CCCCOc2cc(=O)oc3ccccc23)nn1 [Compound 6c7, 5-methyl-1-((1-(4-((2-oxo-2H-chromen-4-yl)oxy)butyl)-1H-1,2,3-triazol-4-yl)methyl)indoline-2,3-dione] | largely inactive | 12.1 ± 1.26% | – | < 11% | – | 10.32 ± 1.53% | – | – | –
COc1cc2c(cc1OC)C(=O)C(CC1CCN(Cc3ccccc3)CC1)C2 (centres unmarked) [Donepezil, donepezil, reference compound] | – | – | – | 74.2 ± 6.17% | – | – | – | – | –
